Measured values as given in patent publication EP3156398A1, “AGONISTS OF THE CHEMOKINE RECEPTOR CXCR3” (Friedrich-Alexander-Universität Erlangen-Nürnberg, priority 2015, dated 2017).

Tests used:
activated T-cells = conditions: cited from earlier work
CXCR3 = molecular target: T1, CXCR3 (Homo sapiens, UniProt P49682); assay: [35S]GTPγS incorporation assay; type: biochemical
T1 construct: expressed in transfected cells; host or cells: HEK293 / HEK293T cells, stably transfected; membrane preparations
T1 sequence (P49682 1-368): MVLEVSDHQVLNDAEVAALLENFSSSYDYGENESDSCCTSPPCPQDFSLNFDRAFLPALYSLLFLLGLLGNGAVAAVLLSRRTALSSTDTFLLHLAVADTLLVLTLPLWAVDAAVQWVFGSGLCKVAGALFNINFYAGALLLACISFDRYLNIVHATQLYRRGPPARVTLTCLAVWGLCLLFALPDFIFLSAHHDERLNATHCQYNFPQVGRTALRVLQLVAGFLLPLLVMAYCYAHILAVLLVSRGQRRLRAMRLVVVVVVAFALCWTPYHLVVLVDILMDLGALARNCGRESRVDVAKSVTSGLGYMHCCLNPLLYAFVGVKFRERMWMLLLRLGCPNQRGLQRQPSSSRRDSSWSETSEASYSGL
Outline: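 Membranes from HEK293 cells stably expressing human CXCR3 (30 µg/mL protein) preincubated 30 min at 37 °C with test compound, CXCL11 and 1 µM GDP in HEPES/MgCl2/NaCl/saponin buffer, pH 7.4. Then 0.10 nM [35S]GTPγS added for 30 min at 37 °C; filter-bound radioactivity counted, triplicates, 3–4 experiments.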

CXCR3-PK1 = molecular target: T2, CXCR3-PK1 (Homo sapiens, UniProt P49682); assay: β-arrestin 2 recruitment assay (PathHunter, DiscoveRx), CXCR3-PK1 construct; type: cell-based; conditions: CXCR3-PK1
T2 construct: expressed in transfected cells; host or cells: HEK293 cells stably expressing beta-gal enzyme acceptor (PathHunter, DiscoveRx), transiently transfected
T2 sequence (P49682 1-368): T1 sequence (P49682 1-368)
Outline: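 HEK293 cells stably expressing β-gal enzyme acceptor, transiently transfected with PK1-tagged wild-type CXCR3, seeded overnight at 37°C. Test compounds or CXCL11 at various concentrations in PBS pH 7.4 with 0.20% BSA, 4 h; detection mix 60 min at room temperature. β-gal fragment complementation read by chemiluminescence.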

CXCR3-PK2 = molecular target: T3, CXCR3-PK2 (Homo sapiens, UniProt P49682); assay: β-arrestin 2 recruitment assay (PathHunter, DiscoveRx), CXCR3-PK2 construct; type: cell-based; conditions: CXCR3-PK2
T3 construct: expressed in transfected cells
T3 sequence (P49682 1-368): T1 sequence (P49682 1-368)
Protocol: β-arrestin 2 recruitment assay: The measurement of β-arrestin recruitment was performed utilizing the PathHunter assay purchased from DiscoveRx (DiscoveRx, Birmingham, U.K.) according to the manufacturer's protocol. HEK293 cells stably expressing β-gal enzyme acceptor were transiently transfected with the ProLink (PK1) tagged wildtype CXCR3 receptor using the TransIT-293 transfection reagent from Mirus (purchased from MoBiTec, Goettingen, Germany). The assay was carried out in 384-well plates containing 2000 cells in 20 µL. After incubation at 37°C (5% CO2, 95% relative humidity) overnight, various concentrations of test compounds or CXCL11 (prepared in PBS, pH 7.4, containing 0.20% BSA) were added and the incubation continued for 4 h. Detection mix was then added and incubated for further 60 min at room temperature. Chemiluminescence was determined with a microplate reader Clariostar (BMG labtech, Ortenberg, Germany).
The ability of the novel ligands according to the present invention to induce CXCR3-mediated β-arrestin 2 recruitment was investigated in the assay system PathHunter (DiscoveRx), which detects the recruitment of β-amestin 2 to the activated receptor using β-galactosidase (β-gal) enzyme fragment complementation. The inventors used two different ProLink tags, ProLink1 (PK1) and ProLink2 (PK2), of which PK2 has higher affinity for the enzyme acceptor to detect weak protein-protein interactions. The CXCR3-PK2 construct is readily able to detect the differences in the propensity of CXCL11 and CXCL10 to induce β-arrestin 2 recruitment at CXCR3. […] Table 3. Ability of the 46/VUF10661 based positive allosteric modulators to activate the CXCR3 as measured in the β-arrestin 2 recruitment assay (PathHunter, DiscoveRx).[a]
To investigate the efficacy of identified partial agonists in the assay format, the inventors used the CXCR3-PK2 construct, which is characterized by higher sensitivity to detect β-arrestin 2 recruitment. The compounds which appeared as weak partial agonists under CXCR3-PK1 conditions appeared as strong partial agonists under CXCR3-PK2 conditions with the efficacy increased up to 80% (Table 4). FAUC1036 reached the efficacy of 66%. […] Table 4. Ability of the compound 5 based positive allosteric modulators to activate the CXCR3 as measured in the β-arrestin 2 recruitment assay (PathHunter, DiscoveRx).[a]

SMILES: NC(N)=NCCC[C@H](NC(=O)[C@@H]1Cc2ccccc2CN1C(=O)CCC(=O)c1ccccc1)C(=O)NCC1CCCCC1 [PS372424]
- influence on CXCL11 induced migration in activated T-cells (activated T-cells): found to antagonize CXCL11 induced migration

SMILES: N[C@@H](CCCCNC(=O)[C@@H]1Cc2ccccc2CN1C(=O)CCC(=O)c1ccccc1)C(=O)NCC(c1ccccc1)c1ccccc1.O=C(O)C(F)(F)F [Compound 25, (S)-1-((2,2-diphenylethyl)amino)-1-oxo-6-((S)-2-(4-oxo-4-phenylbutanoyl)-1,2,3,4-tetrahydroisoquinoline-3-carboxamido)hexan-2-aminium 2,2,2-trifluoroacetate]
- CXCR3 Efficacy (%) ± SEM (CXCR3; % of CXCL11 mediated effect, membrane preparations of HEK293T stably expressing CXCR3): No effect
- CXCR3 mediated G protein activation (result in words) (CXCR3; [35S]GTPγS incorporation): failed to induce CXCR3 mediated G protein activation
- CXCR3 pEC50 ± SEM (CXCR3; membrane preparations of HEK293T stably expressing CXCR3, mean of three experiments in triplicate): No effect
- Emax (CXCR3-PK1; % of CXCL11 mediated effect, read-out: CXCR3-PK1 efficacy (%) (converted)): 17%
- CXCR3-PK1 pEC50 ± SEM (CXCR3-PK1; HEK293-T cells, PathHunter, two to three experiments in triplicate): 6.80±0.21
- Emax (CXCR3-PK2; % of CXCL11 mediated effect, read-out: CXCR3-PK2 efficacy (%) (converted)): 27%
- CXCR3-PK2 pEC50 ± SEM (CXCR3-PK2; HEK293-T cells, PathHunter): 6.51±0.34
